Reference: the supplement of paper PMC10307832

Legend:
Test in all cases: relative viability (nuclei count vs DMSO), 5 days (fraction); higher = more cells survive
A-427 = system: A-427
In short: (§1)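 Five library-drug doses in √10 steps were combined with a fixed anchor-drug dose, or a single drug was given alone, by pin tool to lung cancer cell lines in 1536-well plates the day after seeding. Nuclei were stained and counted after 5 days. Relative viability is the nuclei count in treated wells over that in vehicle wells, taken as the median of duplicate plates.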

ABC-1 = system: ABC-1
In short: as §1

COR-L23 = system: COR-L23
In short: as §1

EMC-BAC-2 = system: EMC-BAC-2
In short: as §1

HARA = system: HARA
In short: as §1

HOP-62 = system: HOP-62
In short: as §1

LK-2 = system: LK-2
In short: as §1

LXF-289 = system: LXF-289
In short: as §1

NCI-H1792 = system: NCI-H1792
In short: as §1

NCI-H1793 = system: NCI-H1793
In short: as §1

NCI-H1944 = system: NCI-H1944
In short: as §1

NCI-H1993 = system: NCI-H1993
In short: as §1

NCI-H2009 = system: NCI-H2009
In short: as §1

NCI-H2170 = system: NCI-H2170
In short: as §1

NCI-H2228 = system: NCI-H2228
In short: as §1

NCI-H3122 = system: NCI-H3122
In short: as §1

NCI-H596 = system: NCI-H596
In short: as §1

NCI-H727 = system: NCI-H727
In short: as §1

PC-3 [JPC-3] = system: PC-3 [JPC-3]
In short: as §1

SK-LU-1 = system: SK-LU-1
In short: as §1

SK-MES-1 = system: SK-MES-1
In short: as §1

SW 1573 = system: SW 1573
In short: as §1

SW 900 = system: SW 900
In short: as §1

Structure (SMILES): NC(=O)Nc1cc(-c2cccc(F)c2)sc1C(=O)N[C@H]1CCCNC1 [AZD7762] + N=C(N)NC(=N)NCCc1ccccc1 [Phenformin] (partner 250 µM)
- relative viability (A-427; first compound 0.01 µM): 0.255
- relative viability (A-427; first compound 0.03162 µM): 0.346
- relative viability (A-427; first compound 0.1 µM): 0.292
- relative viability (A-427; first compound 0.3162 µM): 0.304
- relative viability (A-427; first compound 1 µM): 0.197
- relative viability (ABC-1; first compound 0.01 µM): 0.273
- relative viability (ABC-1; first compound 0.03162 µM): 0.249
- relative viability (ABC-1; first compound 0.1 µM): 0.268
- relative viability (ABC-1; first compound 0.3162 µM): 0.203
- relative viability (ABC-1; first compound 1 µM): 0.19
- relative viability (COR-L23; first compound 0.01 µM): 0.458
- relative viability (COR-L23; first compound 0.03162 µM): 0.446
- relative viability (COR-L23; first compound 0.1 µM): 0.515
- relative viability (COR-L23; first compound 0.3162 µM): 0.349
- relative viability (COR-L23; first compound 1 µM): 0.131
- relative viability (EMC-BAC-2; first compound 0.01 µM): 0.52
- relative viability (EMC-BAC-2; first compound 0.03162 µM): 0.581
- relative viability (EMC-BAC-2; first compound 0.1 µM): 0.542
- relative viability (EMC-BAC-2; first compound 0.3162 µM): 0.448
- relative viability (EMC-BAC-2; first compound 1 µM): 0.474
- relative viability (HARA; first compound 0.01 µM): 0.569
- relative viability (HARA; first compound 0.03162 µM): 0.509
- relative viability (HARA; first compound 0.1 µM): 0.501
- relative viability (HARA; first compound 0.3162 µM): 0.282
- relative viability (HARA; first compound 1 µM): 0.138
- relative viability (HOP-62; first compound 0.01 µM): 0.748
- relative viability (HOP-62; first compound 0.03162 µM): 0.665
- relative viability (HOP-62; first compound 0.1 µM): 0.791
- relative viability (HOP-62; first compound 0.3162 µM): 0.616
- relative viability (HOP-62; first compound 1 µM): 0.583
- relative viability (LK-2; first compound 0.01 µM): 0.396
- relative viability (LK-2; first compound 0.03162 µM): 0.75
- relative viability (LK-2; first compound 0.1 µM): 0.384
- relative viability (LK-2; first compound 0.3162 µM): 0.45
- relative viability (LK-2; first compound 1 µM): 0.31
- relative viability (LXF-289; first compound 0.01 µM): 0.49
- relative viability (LXF-289; first compound 0.03162 µM): 0.54
- relative viability (LXF-289; first compound 0.1 µM): 0.508
- relative viability (LXF-289; first compound 0.3162 µM): 0.445
- relative viability (LXF-289; first compound 1 µM): 0.526
- relative viability (NCI-H1792; first compound 0.01 µM): 0.412
- relative viability (NCI-H1792; first compound 0.03162 µM): 0.26
- relative viability (NCI-H1792; first compound 0.1 µM): 0.442
- relative viability (NCI-H1792; first compound 0.3162 µM): 0.736
- relative viability (NCI-H1792; first compound 1 µM): 0.258
- relative viability (NCI-H1793; first compound 0.01 µM): 0.428
- relative viability (NCI-H1793; first compound 0.03162 µM): 0.416
- relative viability (NCI-H1793; first compound 0.1 µM): 0.278
- relative viability (NCI-H1793; first compound 0.3162 µM): 0.351
- relative viability (NCI-H1793; first compound 1 µM): 0.279
- relative viability (NCI-H1944; first compound 0.01 µM): 0.196
- relative viability (NCI-H1944; first compound 0.03162 µM): 0.23
- relative viability (NCI-H1944; first compound 0.1 µM): 0.231
- relative viability (NCI-H1944; first compound 0.3162 µM): 0.273
- relative viability (NCI-H1944; first compound 1 µM): 0.21
- relative viability (NCI-H1993; first compound 0.01 µM): 0.553
- relative viability (NCI-H1993; first compound 0.03162 µM): 0.504
- relative viability (NCI-H1993; first compound 0.1 µM): 0.53
- relative viability (NCI-H1993; first compound 0.3162 µM): 0.428
- relative viability (NCI-H1993; first compound 1 µM): 0.502
- relative viability (NCI-H2009; first compound 0.01 µM): 0.496
- relative viability (NCI-H2009; first compound 0.03162 µM): 0.535
- relative viability (NCI-H2009; first compound 0.1 µM): 0.535
- relative viability (NCI-H2009; first compound 0.3162 µM): 0.543
- relative viability (NCI-H2009; first compound 1 µM): 0.439
- relative viability (NCI-H2170; first compound 0.01 µM): 0.411
- relative viability (NCI-H2170; first compound 0.03162 µM): 0.41
- relative viability (NCI-H2170; first compound 0.1 µM): 0.471
- relative viability (NCI-H2170; first compound 0.3162 µM): 0.384
- relative viability (NCI-H2170; first compound 1 µM): 0.423
- relative viability (NCI-H2228; first compound 0.01 µM): 0.305
- relative viability (NCI-H2228; first compound 0.03162 µM): 0.348
- relative viability (NCI-H2228; first compound 0.1 µM): 0.223
- relative viability (NCI-H2228; first compound 0.3162 µM): 0.152
- relative viability (NCI-H2228; first compound 1 µM): 0.13
- relative viability (NCI-H3122; first compound 0.01 µM): 0.389
- relative viability (NCI-H3122; first compound 0.03162 µM): 0.412
- relative viability (NCI-H3122; first compound 0.1 µM): 0.416
- relative viability (NCI-H3122; first compound 0.3162 µM): 0.341
- relative viability (NCI-H3122; first compound 1 µM): 0.317
- relative viability (NCI-H596; first compound 0.01 µM): 0.701
- relative viability (NCI-H596; first compound 0.03162 µM): 0.836
- relative viability (NCI-H596; first compound 0.1 µM): 0.641
- relative viability (NCI-H596; first compound 0.3162 µM): 0.809
- relative viability (NCI-H596; first compound 1 µM): 0.673
- relative viability (NCI-H727; first compound 0.01 µM): 0.465
- relative viability (NCI-H727; first compound 0.03162 µM): 0.548
- relative viability (NCI-H727; first compound 0.1 µM): 0.439
- relative viability (NCI-H727; first compound 0.3162 µM): 0.398
- relative viability (NCI-H727; first compound 1 µM): 0.262
- relative viability (PC-3 [JPC-3]; first compound 0.01 µM): 0.485
- relative viability (PC-3 [JPC-3]; first compound 0.03162 µM): 0.503
- relative viability (PC-3 [JPC-3]; first compound 0.1 µM): 0.449
- relative viability (PC-3 [JPC-3]; first compound 0.3162 µM): 0.484
- relative viability (PC-3 [JPC-3]; first compound 1 µM): 0.405
- relative viability (SK-LU-1; first compound 0.01 µM): 0.563
- relative viability (SK-LU-1; first compound 0.03162 µM): 0.494
- relative viability (SK-LU-1; first compound 0.1 µM): 0.17
- relative viability (SK-LU-1; first compound 0.3162 µM): 0.139
- relative viability (SK-LU-1; first compound 1 µM): 0.131
- relative viability (SK-MES-1; first compound 0.01 µM): 0.699
- relative viability (SK-MES-1; first compound 0.03162 µM): 0.663
- relative viability (SK-MES-1; first compound 0.1 µM): 0.709
- relative viability (SK-MES-1; first compound 0.3162 µM): 0.501
- relative viability (SK-MES-1; first compound 1 µM): 0.158
- relative viability (SW 1573; first compound 0.01 µM): 0.374
- relative viability (SW 1573; first compound 0.03162 µM): 0.384
- relative viability (SW 1573; first compound 0.1 µM): 0.346
- relative viability (SW 1573; first compound 0.3162 µM): 0.297
- relative viability (SW 1573; first compound 1 µM): 0.164
- relative viability (SW 900; first compound 0.01 µM): 0.777
- relative viability (SW 900; first compound 0.03162 µM): 0.746
- relative viability (SW 900; first compound 0.1 µM): 0.65
- relative viability (SW 900; first compound 0.3162 µM): 0.579
- relative viability (SW 900; first compound 1 µM): 0.29
